From patent US20080021026A1, “BENZOTHIOPHENE INHIBITORS OF RHO KINASE” (priority 2006, published 2008)
Where two headings read alike, the source gives them in different places.

Legend:
[1] = target: T1, recombinant N-terminal GST-tagged human Rho kinase 1 (ROCK1, amino acids 1-535) (Homo sapiens, UniProt Q13464); assay: In vitro Rho kinase assay (luciferase-based ATP consumption), ROCK1; type: biochemical
T1 construct: ROCK1, amino acids 1-535; purchased Invitrogen Inc. PV-3691
In short: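 ATP depletion measured by firefly luciferase luminescence after 2 h at 30 °C, with inhibition raising signal and activity expressed relative to H-1152P. Reaction: 0.82 μg/ml recombinant GST-tagged ROCK1 (aa 1-535), S6 peptide 100 μg/ml, […], pH 7.5 Tris buffer.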

[2] = target: T2, recombinant N-terminal GST-tagged human Rho kinase 2 (ROCK2, amino acids 1-552) (Homo sapiens, UniProt O75116); assay: In vitro Rho kinase assay (luciferase-based ATP consumption), ROCK2; type: biochemical
T2 construct: ROCK2, amino acids 1-552; purchased Invitrogen Inc. PV3759
In short: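 Luciferase-based luminescence of leftover ATP after 2 h at 30 °C, where inhibition raises signal, reports activity of GST-tagged ROCK2 (aa 1-552) at 0.82 μg/ml. Conditions: S6 peptide 100 μg/ml, […], pH 7.5 Tris buffer. Results given as percent of H-1152P control activity.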

[3] = recombinant GST-tagged human ROCK1, luciferase-based ATP consumption, read-out: ROCK1 IC50
[4] = recombinant GST-tagged human ROCK2, luciferase-based ATP consumption, read-out: ROCK2 IC50

T2 sequence (O75116 1-552): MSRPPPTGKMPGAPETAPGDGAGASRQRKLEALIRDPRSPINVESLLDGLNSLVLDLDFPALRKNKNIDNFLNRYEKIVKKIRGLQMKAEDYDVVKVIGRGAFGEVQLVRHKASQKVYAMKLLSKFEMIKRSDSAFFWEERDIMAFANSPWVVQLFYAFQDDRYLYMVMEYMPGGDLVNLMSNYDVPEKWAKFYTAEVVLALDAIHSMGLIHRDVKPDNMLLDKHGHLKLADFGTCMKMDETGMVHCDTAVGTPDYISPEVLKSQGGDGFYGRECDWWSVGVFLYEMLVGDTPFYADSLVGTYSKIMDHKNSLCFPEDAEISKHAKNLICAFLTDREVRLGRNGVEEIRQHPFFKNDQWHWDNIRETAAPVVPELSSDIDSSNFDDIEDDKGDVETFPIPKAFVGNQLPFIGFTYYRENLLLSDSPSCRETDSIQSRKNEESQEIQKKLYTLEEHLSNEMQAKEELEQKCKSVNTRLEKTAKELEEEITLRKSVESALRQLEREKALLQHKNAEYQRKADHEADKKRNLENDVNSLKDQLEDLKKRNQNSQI
T1 sequence (Q13464 1-535): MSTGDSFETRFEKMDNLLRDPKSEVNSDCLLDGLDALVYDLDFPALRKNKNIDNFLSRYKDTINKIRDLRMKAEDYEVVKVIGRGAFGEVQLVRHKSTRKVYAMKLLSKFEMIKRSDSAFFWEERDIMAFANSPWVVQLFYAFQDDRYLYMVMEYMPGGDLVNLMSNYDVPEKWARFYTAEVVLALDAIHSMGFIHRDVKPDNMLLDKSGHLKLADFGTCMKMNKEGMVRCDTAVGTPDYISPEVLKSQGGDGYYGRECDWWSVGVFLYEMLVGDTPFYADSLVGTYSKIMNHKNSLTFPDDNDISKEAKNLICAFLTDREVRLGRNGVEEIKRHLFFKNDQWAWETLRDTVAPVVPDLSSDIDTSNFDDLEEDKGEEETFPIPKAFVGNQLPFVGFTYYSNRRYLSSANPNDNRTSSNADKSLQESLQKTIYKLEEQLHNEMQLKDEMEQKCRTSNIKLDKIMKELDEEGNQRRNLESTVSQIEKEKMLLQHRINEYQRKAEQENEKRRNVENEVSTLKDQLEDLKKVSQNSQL

SMILES | IC50 [1, 3] [µM] | IC50 [2, 4] [µM] | IC50 ([1]; ROCK1 IC50, recombinant GST-tagged human ROCK1, luciferase-based ATP consumption) [µM] | IC50 ([2]; ROCK2 IC50, recombinant GST-tagged human ROCK2, luciferase-based ATP consumption) [µM]
CCN(CC)CCNc1nccc(Nc2ccc3sc(-c4ccnc(N)n4)c(C)c3c2)n1 [Example 77, N^4-(2-(2-Aminopyrimidin-4-yl)-3-methylbenzo[b]thiophen-5-yl)-N^2-(2-(diethylamino)ethyl)pyrimidine-2,4-diamine] | < 5 | < 5 | – | –
CCN(CC)CCNC(=O)c1cccc(Cc2ccc3sc(-c4ccnc(N)n4)c(C)c3c2)c1 [Example 47, 3-((2-(2-Aminopyrimidin-4-yl)-3-methylbenzo[b]thiophen-5-yl)methyl)-N-(2-(diethylamino)ethyl)benzamide] | < 5 | < 5 | – | –
Cc1c(-c2ccnc(N)n2)sc2ccc(CNC(=O)c3ccncc3Cl)cc12 [Example 152, Cc1c(sc2ccc(CNC(═O)c3ccncc3Cl)cc12)-c4ccnc(N)n4] | – | – | < 5 | < 5
CCCCCCCC(=O)NCc1ccc2sc(-c3ccnc(N)n3)c(C)c2c1 [Example 125] | > 5 | < 5 | – | –
Cc1c(-c2ccnc(N)n2)sc2ccc(Sc3cccc(C(=O)O)c3)cc12 [Example 86, 3-(2-(2-Aminopyrimidin-4-yl)-3-methylbenzo[b]thiophen-5-ylthio)benzoic acid] | < 5 | < 5 | – | –
Cc1c(-c2ccnc(N)n2)sc2ccc(Cc3cccc(C(=O)NCCCN4CCOCC4)c3)cc12 [Example 49, 3-((2-(2-Aminopyrimidin-4-yl)-3-methylbenzo[b]thiophen-5-yl)methyl)-N-(3-morpholinopropyl)benzamide] | < 5 | < 5 | – | –
CC(=O)Oc1ccc(C(=O)Nc2cccc(Nc3ccc4sc(-c5ccnc(N)n5)c(C)c4c3)c2)cc1 [Example 60, 4-(3-(2-(2-Aminopyrimidin-4-yl)-3-methylbenzo[b]thiophen-5-ylamino)phenylcarbamoyl)phenyl acetate] | < 5 | < 5 | – | –
Cc1c(-c2ccnc(N)n2)sc2ccc(C(=O)N3CCC(NC(=O)OC(C)(C)C)C3)cc12 (centres unmarked) [Example 22, tert-Butyl 1-(2-(2-aminopyrimidin-4-yl)-3-methylbenzo[b]thiophene-5-carbonyl)pyrrolidin-3-ylcarbamate] | > 5 | > 5 | – | –
COc1cccc(C#Cc2ccc3sc(-c4ccnc(N)n4)c(C)c3c2)c1 [Example 89, 4-(5-((3-Methoxyphenyl)ethynyl)-3-methylbenzo[b]thiophen-2-yl)pyrimidin-2-amine] | > 5 | > 5 | – | –

Continued, in another order:

IC50 [1, 3] [µM] | IC50 [2, 4] [µM] | SMILES | IC50 ([1]; ROCK1 IC50, recombinant GST-tagged human ROCK1, luciferase-based ATP consumption) [µM] | IC50 ([2]; ROCK2 IC50, recombinant GST-tagged human ROCK2, luciferase-based ATP consumption) [µM]
> 5 | < 5 | Cc1cccc([N+](=O)[O-])c1C(=O)NCc1ccc2sc(-c3ccnc(N)n3)c(C)c2c1 [Example 215, Cc1cccc(c1C(═O)NCc2ccc3sc(c(C)c3c2)-c4ccnc(N)n4)[N+]([O−])═O] | – | –
> 5 | < 5 | Cc1c(-c2ccnc(N)n2)sc2ccc(CNC(=O)c3ccc(Cl)nc3)cc12 [Example 148, Cc1c(sc2ccc(CNC(═O)c3ccc(Cl)nc3)cc12)-c4ccnc(N)n4] | – | –
> 5 | > 5 | Cc1c(-c2ccnc(N)n2)sc2ccc(CNC(=O)C=Cc3ccccc3C(F)(F)F)cc12 [Example 290, Cc1c(sc2ccc(CNC(═O)C═Cc3ccccc3C(F)(F)F)cc12)-c4ccnc(N)n4] | – | –
< 5 | < 5 | CC(=O)Oc1cccc(C(=O)NCc2ccc3sc(-c4ccnc(N)n4)c(C)c3c2)c1 [Example 210, CC(═O)Oc1cccc(c1)C(═O)NCc2ccc3sc(c(C)c3c2)-c4ccnc(N)n4] | – | –
